# Data as given in US11850256B2, “Small molecule-mediated restoration of airway surface physiology in human cystic fibrosis lung epithelia” (The Board of Trustees of the University of Illinois, priority 2016, dated 2023).
# “Also recorded” adds a separate entry of the source.
# Key:
# [1] = test system: CuFi-1 epithelial monolayers; assay: Airway surface liquid (ASL) pH assay, SNARF-dextran ratiometric dye, CuFi-1 monolayers; assay type: cell-based, human
# Protocol: Airway surface liquid (ASL) pH assay. ASL pH was studied using an established fluorescent dye assay using the Dextran, SNARF®-1, 70,000 MW ratiometric dye (Thermo Fisher D3304). Mature, differentiated CuFi-1 (ATCC CRL-4013) epithelial monolayers were grown on Corning Costar 0.4 μm Transwell Clear Polyester Membrane cell culture inserts (Corning 3470). CuFi epithelia were treated with perfluorinated hydrocarbon (PFC) vehicle, AmB, AmB:Chol or Chol and incubated for the time course of the experiment at 37° C. On the day of imaging, 100 μL of a suspension of SNARF-dextran in PFC was added to the apical side of the monolayers. Monolayers were imaged 2 hours after dye addition. The monolayers were placed on 100 μL of Ultroser G media on a 10 mm glass bottom Fluorodish for imaging (World Precision Instruments). Five images per membrane were taken on a Zeiss LSM 880 confocal microscope at 40× water immersion. These images were analyzed using ImageJ to determine the green to red ratio of each image. Solutions of known pH were used to calibrate pH detection using this system. […]
# CuFi-1 monolayers = assay: Ussing chamber response to forskolin/IBMX CFTR activation in CuFi-1 monolayers; assay type: cell-based, human; conditions: after 48 hr treatment
# Protocol: After observing this decrease of efficacy with increasing dose, AmB was pre-complexed with cholesterol to mitigate its potentially disruptive sterol binding activity, following the mechanistic model laid out in previous studies. Gray K C et al. (2012) Proc Natl Acad Sci USA 109(7): 2234-2239; Anderson T M et al. (2014) Nat Chem Biol 10(5): 400-406. The activity of an AmB:cholesterol complex was tested, and this complex was able to extend the effective dose of ASL pH rescue out to 100 μM (FIG. 21). After 48 hr treatment with AmB, CuFi-1 monolayers were evaluated in an Ussing chamber.
# [2] = test system: CF primary human lung epithelia; assay: ASL viscosity in CF primary human lung epithelia; assay type: cell-based; conditions: 2 μM, 48 h; vs untreated CF epithelia
# Protocol: (§1) Non-CF (control) and CF primary human lung epithelia were prepared and maintained in vitro as previously described. Pezzulo A A et al. (2012) Nature 487: 109-113. These cells were treated with AmB at a final concentration of 2 μM for 48 h, and then ASL viscosity was measured.
# [3] = test system: CF primary human lung epithelia; assay: ASL bacterial killing in CF primary human lung epithelia (S. aureus); assay type: cell-based; conditions: 2 μM
# Protocol: as §1, with “CF” for “Non-CF (control) and CF”, “AmB or C35deOAmB” for “AmB”, “for 1 minute, then washed and maintained in culture for” for “for”, “bacterial killing” for “ASL viscosity”
# Increased ASL viscosity, a downstream effect of ASL pH acidification, contributes to the inability to clear mucus and bacteria from the lung. […] ASL pH is also closely correlated to the ability of antimicrobial proteins in the ASL to enact bacterial killing. To connect the observed AmB-mediated increase in ASL pH with a meaningful increase in ASL bacterial killing, AmB treated epithelia were tested against a human strain of S. aureus. Pezzulo A A et al. (2012) Nature 487: 109-113.
# [4] = test system: Human red blood cells (RBCs); assay: Hemolysis of human red blood cells; assay type: cell-based
# Protocol: Against Toxicity but Preserves Permeabilization of CF Human Lung Epithelia Human red blood cells (RBCs) were separated from whole blood by centrifugation and then exposed to AmB or pre-formed AmB:Chol complexes (1:5) (Example 8) over a range of concentrations up to 20 μM. Hemolysis was then measured.
# [5] = test system: protein ion channel-deficient yeast (trk1Δtrk2Δ); conditions: cited from earlier work
# yeast = conditions: cited from earlier work
compound,measurement,setting,value
"C[C@@H]1[C@H](O)[C@@H](C)/C=C/C=C/C=C/C=C/C=C/C=C/C=C/[C@H](O[C@@H]2O[C@H](C)[C@@H](O)[C@H](N)[C@@H]2O)C[C@@H]2O[C@](O)(C[C@@H](O)C[C@@H](O)[C@H](O)CC[C@@H](O)C[C@@H](O)CC(=O)O[C@H]1C)C[C@H](O)[C@H]2C(=O)O [AmB, amphotericin B]","effect on ASL pH, apical addition",[1]; CuFi-1,increase ASL pH; also recorded: efficacious
same,"effect on ASL pH, basolateral addition","[1]; CuFi-1, basolateral addition",unable to increase ASL pH; also recorded: not basolateral
same,drop of ASL pH below the starting pH,"[1]; Example 7, FIG. 8, by 25 μM and beyond",about 0.05 pH units
same,dose up to which ASL pH increased,"[1]; Example 7, FIG. 8, suspension in PFC",2 μM
same,ASL pH at high dose,"[1]; Example 14, FIG. 21, by 25 μM",back down to the starting pH
same,dose at which ASL pH increase peaks,"[1]; Example 14, FIG. 21, suspension in PFC",5 μM
same,increase in short circuit current in response to forskolin/IBMX CFTR activation,CuFi-1 monolayers,neither untreated nor AmB-treated CuFi-1 monolayers had an increase in short circuit current; also recorded: no increase in short circuit current
same,ASL viscosity,[2],significantly decreased ASL viscosity
same,percent killing (ASL bacterial killing),"[3]; killing measured after 48 h, control about 25 percent",about 40%
same,effect on ASL bacterial killing,[3]; vs control,increased ASL bacterial killing
same,concentration giving 50 percent hemolysis,[4],about 7 μM
same,concentration giving 100 percent hemolysis,[4],about 10 μM
same,yeast growth rescue,[5],restored to normal phenotype (growth); also recorded: restore growth
same,fungicidal activity / toxicity to yeast,yeast,highly toxic to yeast
